# Values joined by “and” are separate entries in the source; they are usually repeats but may differ in a detail not shown here. Equal values may be shown once.
# What was measured:
# [1] = biological target: T1, Serine/threonine-protein kinase TBK1 (Homo sapiens) (UniProt Q9UHD2); conditions: at 1 µM
# T1 sequence (whole entry): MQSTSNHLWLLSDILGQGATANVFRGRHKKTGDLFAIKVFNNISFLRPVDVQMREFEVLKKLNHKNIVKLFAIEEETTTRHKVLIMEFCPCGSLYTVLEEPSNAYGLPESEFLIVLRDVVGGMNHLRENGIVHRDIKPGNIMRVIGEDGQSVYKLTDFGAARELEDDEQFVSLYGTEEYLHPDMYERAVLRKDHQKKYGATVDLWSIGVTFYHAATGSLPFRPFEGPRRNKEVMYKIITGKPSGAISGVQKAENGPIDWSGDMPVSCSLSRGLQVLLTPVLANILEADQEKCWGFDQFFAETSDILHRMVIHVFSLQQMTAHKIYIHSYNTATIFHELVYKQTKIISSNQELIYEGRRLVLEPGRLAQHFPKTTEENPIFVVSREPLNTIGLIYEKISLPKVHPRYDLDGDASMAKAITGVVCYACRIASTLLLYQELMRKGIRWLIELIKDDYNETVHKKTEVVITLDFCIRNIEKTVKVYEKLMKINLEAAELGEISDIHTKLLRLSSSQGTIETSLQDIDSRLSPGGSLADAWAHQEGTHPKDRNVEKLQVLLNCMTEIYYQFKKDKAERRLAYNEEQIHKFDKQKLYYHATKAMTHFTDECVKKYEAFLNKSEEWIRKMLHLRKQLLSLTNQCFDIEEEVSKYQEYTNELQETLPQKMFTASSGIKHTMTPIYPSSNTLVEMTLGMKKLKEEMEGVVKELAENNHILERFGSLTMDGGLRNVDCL
# [2] = biological target: T2, Inhibitor of nuclear factor kappa-B kinase subunit alpha (Homo sapiens) (UniProt O15111); conditions: at 1 µM
# T2 sequence (whole entry): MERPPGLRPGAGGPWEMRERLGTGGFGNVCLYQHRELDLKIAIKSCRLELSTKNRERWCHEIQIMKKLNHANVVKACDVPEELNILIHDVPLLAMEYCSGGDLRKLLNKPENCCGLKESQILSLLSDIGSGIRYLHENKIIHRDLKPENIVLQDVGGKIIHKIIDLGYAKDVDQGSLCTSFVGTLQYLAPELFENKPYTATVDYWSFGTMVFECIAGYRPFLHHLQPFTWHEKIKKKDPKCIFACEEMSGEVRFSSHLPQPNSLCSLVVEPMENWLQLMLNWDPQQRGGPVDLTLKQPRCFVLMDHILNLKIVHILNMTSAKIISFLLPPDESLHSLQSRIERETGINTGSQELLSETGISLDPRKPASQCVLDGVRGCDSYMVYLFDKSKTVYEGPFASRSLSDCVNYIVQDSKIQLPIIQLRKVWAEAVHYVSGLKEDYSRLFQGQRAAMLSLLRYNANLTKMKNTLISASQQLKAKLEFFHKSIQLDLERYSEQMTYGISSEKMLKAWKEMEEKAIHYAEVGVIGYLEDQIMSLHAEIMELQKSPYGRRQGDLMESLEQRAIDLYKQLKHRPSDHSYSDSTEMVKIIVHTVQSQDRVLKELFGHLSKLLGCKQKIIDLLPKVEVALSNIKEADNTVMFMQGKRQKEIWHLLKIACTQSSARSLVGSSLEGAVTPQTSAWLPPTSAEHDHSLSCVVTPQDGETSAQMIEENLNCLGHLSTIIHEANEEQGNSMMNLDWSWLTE
Compound,inhibition [1],inhibition [2]
COc1cc(N2CCN(C(C)C)CC2)ccc1Nc1nc(Nc2cccc3ncccc23)c2cc[nH]c2n1,7% and 2%,2% and 9%
c1ccc(-c2nc3n(c2-c2ccc4c(c2)OCO4)CCC3)nc1,5%,2% and 0%
NC(=O)c1sc(-n2cnc3ccc(C(F)(F)F)cc32)cc1OCc1ccccc1Br,21% and 4%,1% and 0%
COc1cccc(-n2nc(C)c3c(N/N=C(\C)c4ccncc4)ncnc32)c1,4% and 2%,7% and 6%
Nc1nccc(-c2c(-c3ccc(F)cc3)nn3cc(C(F)(F)F)ccc23)n1,-3% and 1%,1% and 0%
Fc1cccc(COc2ccc(Nc3ncncc3C#Cc3ccccc3)cc2Cl)c1,-6% and -7%,2% and 5%
CCN1CCC(CC(=O)Nc2n[nH]c3nc(-c4cccs4)c(Br)cc23)CC1,8% and 6%,-9% and 5%
CNC(=O)c1ncccc1Nc1nc(Nc2cc3c(cc2OC)CCCN3C(=O)CN(C)C)nc2[nH]ccc12,8% and 12%,6% and 5%
Cc1cc(O)cc(C)c1/C=C/c1cncc(C(=O)N(C)C)c1,1% and 6%,-8% and -5%
COc1cc(Nc2ncc3c(C)nc(-c4cccc(C(F)(F)F)c4)n3n2)cc(OC)c1OC,53% and 45%,4% and 2%
O=C1NC(=O)C(N2CCc3ccccc32)=C1c1ccc(Cl)cc1,1%,8% and 9%
CCn1c(-c2nonc2N)nc2c(N3CCCC3)nccc21,-8% and -4%,3% and 2%
Nc1nc(-c2ccccn2)c(-c2ccc3ncccc3n2)s1,3% and 0%,5%
CC1(C)CC(n2cnc(-c3ccc(F)cc3)c2-c2ccnc(N)n2)CC(C)(C)N1,-5% and -3%,3%
CN1CCC(n2cnc(-c3ccc(F)cc3)c2-c2ccnc(Nc3ccccc3)n2)CC1,0% and -2%,-1% and 0%
COc1cc2c(cc1Nc1nc(N3CCc4ccccc43)c3cc[nH]c3n1)N(C(=O)CN(C)C)CC2,24% and 28%,3%
Nc1nc(-c2ccc3c(c2)C(=Cc2cc(Br)c(O)c(Br)c2)C(=O)N3)cs1,7% and 5%,4% and 2%
Cc1cccc(-c2n[nH]cc2-c2ccc3ncccc3n2)n1,-10% and -6%,2% and 4%
O=C(O[C@H]1CN[C@H](C#Cc2cc3ncnc(Nc4ccc5c(cnn5Cc5ccccc5)c4)c3s2)C1)N1CCOCC1,26% and 31%,4% and 3%
COc1cc(C)c(N(C)C(=O)CN(C)C)cc1Nc1nc(Nc2cccc(F)c2C(N)=O)c2cc[nH]c2n1,-4% and -3%,4% and 3%
COc1cc2ncn(-c3cc(OCc4ccccc4C(F)(F)F)c(C(=O)N(C)C)s3)c2cc1OC,-1% and 0%,1% and 0%
O=S(=O)(CCNCc1ccc(-c2ccc3ncnc(Nc4ccc(OCc5cccc(F)c5)c(Cl)c4)c3c2)o1)c1ccccc1,12% and 18%,4% and 12%
CCCN(CCS(C)(=O)=O)Cc1ccc(-c2ccc3ncnc(Nc4ccc(OCc5cccc(F)c5)c(Cl)c4)c3c2)o1,7% and 10%,2% and -1%
CC(C)c1ccc(Nc2nccc(-c3cnn4ncccc34)n2)cc1,18% and 19%,2% and -1%
COc1cc(C=NNc2ncnc3c2cnn3-c2ccccc2)ccc1O,38% and 42%,12% and 15%
COc1cccc(-n2ncc3c(N/N=C/c4cccc(F)c4)ncnc32)c1,6% and 5%,1% and 0%
CN(C)CCCNc1nccc(-c2c(-c3ccc(F)cc3)nn3cc(C(F)(F)F)ccc23)n1,-1% and 2%,2% and 3%
CCCN1CCC(c2ccc(Nc3nc(Nc4cc(F)ccc4C(N)=O)c4cc[nH]c4n3)c(OC)c2)CC1,13% and 7%,3% and 0%
CCn1c(-c2nonc2N)nc2ccncc21,-4% and -5%,4% and 1%
c1ccc(Nc2ncc(-c3ccccc3)o2)cc1,2% and 1%,-1% and 0%

# Other lines, results leading:
inhibition [1],inhibition [2],Compound
3% and 5%,4% and 3%,CS(=O)(=O)Nc1cccc(-c2ccc3c(NC(=O)C4CC4)n[nH]c3c2)c1
7% and 8%,2% and 1%,CN(C)C(=O)O[C@H]1CN[C@H](C#Cc2cc3ncnc(Nc4ccc(OCc5cccc(F)c5)c(Cl)c4)c3s2)C1
0% and 3%,2% and 0%,COc1ccc(C2=C(N3CCc4ccccc43)C(=O)NC2=O)cc1
0% and 2%,-3% and -2%,COC(=O)Nc1nc2ccc(Oc3ccc(NC(=O)Nc4cccc(Cl)c4)cc3)cc2[nH]1
-2%,0% and 2%,COC(=O)Nc1nc2cc(Oc3cccc(NC(=O)Nc4cc(C(F)(F)F)ccc4F)c3)ccc2[nH]1
-5% and -2%,2% and 4%,COC(=O)Nc1nc2cc(Oc3ccc(NC(=O)Nc4cccc(C(=O)O)c4)cc3)ccc2[nH]1
1% and 5%,-8% and 0%,Cc1nn(C)c2cc(N(C)c3ccnc(Nc4cccc(S(N)(=O)=O)c4)n3)ccc12
0%,2% and 3%,COC(=O)Nc1nc2ccc(S(=O)(=O)c3ccc(NC(=O)Nc4cc(C(F)(F)F)ccc4F)cc3)cc2[nH]1
-1% and -2%,3%,CS(=O)(=O)CCNCc1ccc(-c2ccc3ncnc(Nc4ccc(OCc5ccccc5)cc4)c3c2)o1
0% and 2%,-1%,O=C(Nc1ccc(Oc2ccc3[nH]c(NC(=O)c4ccco4)nc3c2)cc1)Nc1cc(C(F)(F)F)ccc1F
0% and 5%,-3%,NC(=O)c1ccc(-c2nc(-c3ccccn3)c(-c3ccc4c(c3)OCO4)[nH]2)cc1
-6% and -5%,14% and 7%,OCc1ccc(-c2nc(-c3ccccn3)c(-c3ccc4c(c3)OCO4)[nH]2)cc1
-3% and -1%,1% and -1%,CS(=O)(=O)CCNCc1ccc(-c2ccc3ncnc(Nc4ccc(OCc5ccccc5)c(C(F)(F)F)c4)c3c2)o1
30% and 32%,2% and 3%,COc1cc(C)c(NC(=O)CN(C)C)cc1Nc1nc(Nc2cccc(F)c2C(N)=O)c2cc[nH]c2n1
87% and 88%,-7% and 1%,CC(C)(CO)CNC(=O)c1ccc2c(c1)/C(=N/Nc1ccc(S(N)(=O)=O)cc1)C(=O)N2
-2% and -4%,-1% and -3%,CS(=O)(=O)Nc1ccc(-c2cc(-c3ccccc3)cc(C(N)=O)c2N)cc1
6% and 3%,11%,O=C(Nc1ccc(Oc2ccc3[nH]c(NC(=O)c4ccccc4)nc3c2)cc1)Nc1cc(C(F)(F)F)ccc1F
-1% and -3%,2% and 1%,Cc1ccc2c(-c3ccnc(Nc4ccccc4)n3)c(-c3ccc(F)cc3)nn2n1
59% and 60%,0%,NS(=O)(=O)c1ccc(N/N=C2\C(=O)Nc3ccc(C(=O)NCc4ccncc4)cc32)cc1
93% and 98%,-4% and -9%,CC(C)COC(=O)c1ccc2c(c1)/C(=C/Nc1ccc(S(N)(=O)=O)cc1)C(=O)N2
16% and 17%,1% and -1%,NS(=O)(=O)c1ccc(Nc2cc(-c3ccc(O)c(F)c3)n[nH]2)cc1
4% and 1%,5% and 9%,CCn1c(-c2nonc2N)nc2cnc(Oc3cccc(NC(=O)c4ccc(N(C)C)cc4)c3)cc21
3% and 2%,6% and -8%,CC1=C(C(=O)Nc2ccc3[nH]ncc3c2)C(c2ccc(Cl)c(Cl)c2)CC(=O)N1 (stereo unspecified)
42% and 41%,-3% and -4%,NS(=O)(=O)c1ccc(N/N=C2\C(=O)Nc3ccc(C(=O)NCCCn4ccnc4)cc32)cc1
29% and 25%,5%,NS(=O)(=O)c1ccc(N/N=C2\C(=O)Nc3cccc(CCc4ccncc4)c32)cc1
-2% and -4%,3%,O=C1NC(=O)C(c2ccc(Cl)cc2)=C1Nc1ccc(Cl)c(C(=O)O)c1
-2% and 1%,-9% and 5%,CS(=O)(=O)CCNCc1nc(-c2ccc3ncnc(Nc4ccc(OCc5cccc(C(F)(F)F)c5)cc4)c3c2)cs1
5% and 11%,5% and 3%,COc1cccc(-n2ncc3c(N/N=C/c4ccc(F)cc4)ncnc32)c1
